Experimental data reported in PMC12423301, “Astrocytic monoamine oxidase B (MAOB)–gamma-aminobutyric acid (GABA) axis as a molecular brake on repair following spinal cord injury” (Signal Transduction and Targeted Therapy, 2025).
“Also recorded” adds a separate entry of the source. Like-named read-outs stand apart in the source and are kept apart here.

Assays:
[1] = tested on: rat SCI model; test: Ki67 promoter dual-virus labeling of proliferating cells; assay type: in vivo, Sprague-Dawley (SD) rats; conditions: SCI + KDS 2w, PI 10w
[2] = tested on: Parkinson’s disease mouse model; conditions: cited from earlier work
[3] = Phase 1 clinical trial: pharmacokinetics
Description: All subjects provided consent for this phase 1 clinical trial study. The study comprised 11 cohorts: single ascending dose (SAD) and multiple ascending dose (MAD) studies. […] Cohort 3 employed a two-period crossover design with a 14-day washout.
The parameters related to plasma concentrations were calculated via non-compartmental analysis using the linear-up log-down method in Phoenix WinNonlin software version 8.3 (Certara, US). The parameters related to urine concentrations were calculated using the linear trapezoidal linear interpolation method.
In the SAD study, plasma samples were collected using sodium K2-EDTA tubes at pre-dose, 0.33, 0.75, 1, 2, 3, 4, 6, 8, 12, 24, 48, 72, 96, 120, and 144 h after dosing. Urine samples were collected up to 72 h post-dose. In the MAD study, plasma samples were collected at pre-dose, 0.33, 0.75, 1, 2, 3, 4, 6, 8, 12 and 24 h after the administration of the first dose, and at pre-dose of the third to seventh doses. After the administration of the seventh dose, plasma samples were collected at the same time points as after the first dose, with additional sampling points at 48, 72, 96, 120, and 144 h post-dose. Urine samples were collected for 24 h after the administration of the first dose and for 72 h after the seventh dose.
For the clinical trial, dose proportionality of the PK parameters (Cmax, Cmax,ss, AUClast, and AUCτ) was assessed using power model using the following equation: log (PK parameter) = β0 + β1 log (dose). The regression slope (β1) and the intercept (β0) were estimated with 95% confidence interval (CI) using PROC REG in SAS version 9.4. The PK parameters were considered dose-proportional if the 95% CI of the β1 included 1. […] Using a linear mixed effect model, the logarithmized PK parameters were analyzed with the high-gat meal as a fixed effect and inter-individual differences as a random effect. The GMR and its 90% CI of the PK parameters of the high-fat meal were calculated relative to those in the fasting state. […] In elderly subjects, the same analyses were performed and compared to those of healthy younger adults.

[4] = cynomolgus monkey, in vivo, po
[5] = Sprague-Dawley, rat, in vivo
[6] = tested on: rat SCI model; test: Immunohistochemistry of injured rat spinal cord; assay type: in vivo, Sprague-Dawley (SD) rats
Description: Immunohistochemistry was performed as previously described.[70] The tissue sections were blocked and treated with primary antibodies. After overnight incubation at 4 °C, species-specific fluorescent secondary antibodies were applied for visualization. The tissue sections were then stained with 4’,6-diamidino-2-phenylindole (DAPI) during mounting. This protocol allows a detailed assessment of various cellular markers involved in SCI and recovery processes.
The secondary antibodies used included FITC-donkey anti-mouse IgG (H + L) (1:150, 715-095-151), Cy^TM3-donkey anti-mouse IgG (H + L) (1:600, 715-165-151), FITC-donkey anti-rabbit IgG (H + L) (1:150, 711-095-152), Alexa Fluor 594-donkey anti-rabbit IgG (H + L) (1:500, 711-585-152), Alexa Fluor 647-donkey anti-rabbit IgG (H + L) (1:500, 711-605-152), Cy^TM3-donkey anti-chicken IgG (H + L) (1:600, 703-165-155), DyLightTM405-donkey anti-chicken IgY + + (H + L) (1:600, 703-476-155), Alexa Fluor 488-donkey anti-chicken IgY (IgG) (H + L) (1:500, 703-545-155), Alexa Fluor 594-donkey anti-chicken IgY (IgG) (H + L) (1:500, 703-585-155), Alexa Fluor 488-donkey anti-goat IgG (H + L) (1:500, 705-545-003), and Alexa Fluor 647-donkey anti-goat IgG (H + L) (1:300, 705-606-147). All secondary antibodies were purchased from Jackson ImmunoResearch.
The fluorescence images were observed via confocal laser scanning microscopy (LSM700 or LSM710, Carl Zeiss), and analyzed via the ImageJ (NIH) software. For visualizing the mCh-positive signals of proliferating or proliferated cells, Z-stack images acquired in 1-μm steps were processed for 3D surface rendering of mCh-positive signals using IMARIS software (version 9.0.1, Oxford Instruments).

[7] = SCI+KDS 10mpk, 20mpk, and 30mpk vs SCI+V, PI 10w
[8] = SCI+KDS 1d/Re vs SCI+V and SCI+KDS 1d/No, PI 10w

## CS(=O)(=O)O.C[C@H](NCc1ccc(-c2ccc(C(F)(F)F)cc2)cc1)C(N)=O [KDS2010, (S)-2-(((4’-Trifluoromethylbiphenyl-4-yl)methyl)amino)propanamide methane-sulfonate]
[1]
  mCh-positive signals (axon fibers from proliferating/proliferated cells): traversed the core of the injury site
[2]
  motor impairment: reverse
[3]; 60 mg to 480 mg
  increase of systemic exposure (AUCinf and AUCτ,ss) with dose: dose-proportional
[3]; 120 mg for 7 days, elderly vs young
  higher exposure in elderly subjects: approximately 25%
[3]; 60, 120, 240, 480 mg at steady state
  pharmacokinetic profiles, Korean vs Caucasian subjects: similar
[3]; healthy humans
  unchanged drug excreted in the urine: Less than 1%
[3]; human, in vivo, 120 mg
  AUC(0-inf): 13900 ng·h/mL
  effect of a high-fat meal on systemic exposure (Cmax and AUCinf): did not affect
[3]; human, in vivo, po
  half-life: 44.2 h
  time to maximum plasma concentration (Cmax): 3 h
[4]
  approximate lethal dose: ≥ 100 mg/kg
[5]; iv
  approximate lethal dose: ≥ 100 mg/kg
[5]; po
  approximate lethal dose: ≥ 1400 mg/kg
[6]; KDS2010 treatment compared with SCI + V
  GFAP intensity: significantly reduced
[6]; MAOB inhibition from the subacute phase, PI 10w
  intensity of TrkB in neurons, oligodendrocytes, and astrocytes: significantly increased
[6]; SCI + KDS 2w vs SCI + V, PI 10w
  neurons positive for both Ki67 and NeuN: significantly increased; also recorded: significant increase
[6]; SCI + KDS 2w, 10 mpk, PI 10w
  intensity of GABA in GFAP-positive astrocytes: significantly recovered; also recorded: significantly attenuated
[6]; SCI + KDS 2w, PI 10w
  MAP2 intensity: fully restored
  MBP intensity: significant recovery
  expression of astrocytic GFAP and MAOB: returned to normal levels
  intensity of proBDNF in astrocytes and neurons: significantly increased
  number of NeuN-positive neurons: significant recovery
  oligodendrocytes positive for both Ki67 and MBP: substantial population; also recorded: significantly increased
[6]; SCI+KDS 6w
  intensity of GABA and astrocytic DAO: significantly reduced
[6]; SCI+KDS 6w vs SCI+V
  intensity of proBDNF: significantly increased
[6]; SCI+KDS 6w vs SCI+V, PI 14w
  astrocytic GFAP and MAOB expression: significantly decreased
  intensity of MAP2: significant increase
  intensity of MBP-positive TrkB: significantly increased
[6]; [7]
  intensities of GFAP and GABA: significantly reduced
  intensity of MAP2: significant increase
  intensity of MBP: significant recovery
  intensity of MBP-positive TrkB: significant recovery
  intensity of astrocytic DAO: significantly decreased
  intensity of proBDNF: significantly increased
[6]; SCI+KDS 1d/No
  GFAP levels: persistently high GFAP levels
  alternative diamine oxidase (DAO) pathway: activated
[6]; SCI+KDS 1d/Re
  intensity of GABA and astrocytic DAO: significantly reduced
[6]; SCI+KDS 1d/Re vs SCI+V and SCI+KDS 1d/No
  intensity of proBDNF: significantly increased
[6]; [8]
  astrocytic GFAP and MAOB expression: significantly decreased
  intensity of MAP2: significant increase
[6]; all doses (10mpk, 20mpk, 30mpk) vs SCI+V, PI 10w
  astrocytic MAOB expression: significant reduction
[6]; rat SCI, KDS2010 treatment
  expression of CSPGs (neurocan, phosphacan): notably reduced
